Measurements as given in PMC9510668 (Frontiers in Pharmacology, 2022).
≈ marks a conversion by molar mass, not a printed value. Where two headings read alike, the source gives them in different places.

How the values were obtained:
[1] = 2009, cited from earlier work; for Cmax, Observation / Ctrough, Observation / Tmax, Observation / AUC0-24, Observation / AUC504-528, Observation: ref Hurwitz et al.
CYP3A4 = settings: ref Food and Drug Administration, 2009; Yamada et al., 2020; cited from earlier work
CYP2B6 = settings: ref Food and Drug Administration, 2009; Yamada et al., 2020; cited from earlier work
MATE2-K = system: MATE2-K; parameters: method as in Sauzay et al., 2016; settings: ref Sauzay et al., 2016; cited from earlier work
[2] = ref Verheijen et al., 2017, cited from earlier work
MATE1 = system: MATE1; parameters: method as in Sauzay et al., 2016; settings: ref Sauzay et al., 2016; cited from earlier work
[3] = cited from earlier work; for Solubility: ref Herbrink et al., 2018; for LogP: 2022
[4] = Equilibrium solubility in pH buffers and biorelevant media; format: physicochemical
Procedure: After incubation of 2 h, 1 ml aliquot of each sample was withdrawn from the tube. The samples were filtered using a 0.22 μm filter, the first 0.8 ml was discarded, and the remaining 0.2 ml was analyzed by the HPLC. The specific experiments containing different conditions are as follows: • i) Solubility testing in simulated fasted and fed media
Specifically, solubility media were prepared using different phosphate buffers. Media pH was adjusted to the required value (Table 1, target value) using KOH or H3PO4, which were equal to the pH value of gastrointestinal tract compartment in a fasted and fed state in humans, respectively. • ii) Biorelevant solubility

[5] = ref Fink, 2020; cited from earlier work
[6] = 600 mg OD for 21 consecutive days, Day 22
[7] = 800 mg OD for 21 consecutive days, Day 1
[8] = 800 mg OD for 21 consecutive days, Day 22
[9] = 1000 mg OD for 21 consecutive days, Day 1
[10] = 1000 mg OD for 21 consecutive days, Day 22
[11] = 1400 mg OD for 21 consecutive days, Day 1
[12] = 1400 mg OD for 21 consecutive days, Day 22
[13] = 2000 mg OD for 21 consecutive days, Day 1
[14] = 2000 mg OD for 21 consecutive days, Day 22

- solubility at 2 h ([4]; 37 °C, pH 1.3, fassgf or other biorelevant, thermodynamic from solid, FaSSGF-PH1.3, read-out: Solubility (mean ± SD) at fasted state): 436.1 ± 1 µg/mL (≈ 997 µM)
- solubility at 2 h ([4]; 37 °C, pH 4.5, fassgf or other biorelevant, thermodynamic from solid, FEDGAS-PH4.5, read-out: Solubility (mean ± SD) at fed state): 147 ± 1.9 µg/mL (≈ 336 µM)
- solubility at 2 h ([4]; 37 °C, pH 5.8, thermodynamic from solid, FeSSIF-V2-PH5.8, read-out: Solubility (mean ± SD) at fed state): 6.5 ± 1.3 µg/mL (≈ 14.9 µM)
- solubility at 2 h ([4]; FEGGAS medium, 37 °C, fassgf or other biorelevant, thermodynamic from solid, fed state, used for food simulation, read-out: Mean value of the three solubility in the FEGGAS medium): 167 µg/mL (≈ 381 µM)
- solubility at 2 h ([4]; pH 3, FEDGAS-PH3.0, read-out: Solubility (mean ± SD) at fed state): 322.7 ± 2.6 µg/mL (≈ 738 µM)
- solubility at 2 h ([4]; pH 4.78, FaSSGF-PH4.78 (elevated gastric pH after esomeprazole), read-out: Solubility (mean ± SD) at fasted state): 46.1 ± 3.4 µg/mL (≈ 105 µM)
- solubility at 2 h ([4]; pH 4.9, FEDGAS-PH4.9, read-out: Solubility (mean ± SD) at fed state): 40 ± 0.7 µg/mL (≈ 91.4 µM)
- solubility at 2 h ([4]; pH 6.5, FaSSIF-V2-PH6.5, read-out: Solubility (mean ± SD) at fasted state): 0.63 ± 0.18 µg/mL (≈ 1.44 µM)
- Solubility ([4]; pH ≥ 7.0): cannot even be detected
- solubility at 2 h ([4]; phosphate buffer, 37 °C, pH 3, aqueous buffer, thermodynamic from solid, PH3.0, read-out: Solubility (mean ± SD) at fasted state): 391 ± 4.6 µg/mL (≈ 895 µM)
- solubility at 2 h ([4]; phosphate buffer, 37 °C, pH 4.5, aqueous buffer, thermodynamic from solid, PH4.5, read-out: Solubility (mean ± SD) at fasted state): 68.3 ± 3.3 µg/mL (≈ 156 µM)
- solubility at 2 h ([4]; phosphate buffer, 37 °C, pH 5, aqueous buffer, thermodynamic from solid, PH5.0, read-out: Solubility (mean ± SD) at fasted state): 24.2 ± 2.3 µg/mL (≈ 55.3 µM)
- solubility at 2 h ([4]; phosphate buffer, 37 °C, pH 6, aqueous buffer, thermodynamic from solid, PH6.0, read-out: Solubility (mean ± SD) at fasted state): 7.6 ± 0.6 µg/mL (≈ 17.4 µM)
- solubility at 2 h ([4]; phosphate buffer, 37 °C, pH 7, aqueous buffer, thermodynamic from solid, PH7.0, read-out: Solubility (mean ± SD) at fasted state): < 0.27 µg/mL
- solubility at 2 h ([4]; phosphate buffer, 37 °C, pH 7.5, aqueous buffer, thermodynamic from solid, PH7.5, read-out: Solubility (mean ± SD) at fasted state): < 0.27 µg/mL
- solubility at 2 h ([4]; phosphate buffer, pH 2, PH2.0, read-out: Solubility (mean ± SD) at fasted state): 263.9 ± 1.1 µg/mL (≈ 603 µM)
SMILES: Cc1ccc(Nc2nccc(N(C)c3ccc4c(C)n(C)nc4c3)n2)cc1S(N)(=O)=O [PAZ, pazopanib]
- Cmax, Observation [1, 6]: 18200 ng/mL
- Ctrough, Observation [1, 6]: 11000 ng/mL
- Tmax, Observation [1, 6]: 6.0 h
- AUC0-24, Observation [1, 7]: 275.1 µg·h/mL
- Cmax, Observation [1, 7]: 19400 ng/mL
- Ctrough, Observation [1, 7]: 9400 ng/mL
- Tmax, Observation [1, 7]: 3.5 h
- AUC504-528, Observation [1, 8]: 743.3 µg·h/mL
- Cmax, Observation [1, 8]: 45100 ng/mL
- Ctrough, Observation [1, 8]: 24000 ng/mL
- Tmax, Observation [1, 8]: 2.0 h
- AUC0-24, Observation [1, 9]: 400.0 µg·h/mL
- Cmax, Observation [1, 9]: 36100 ng/mL
- Ctrough, Observation [1, 9]: 12200 ng/mL
- Tmax, Observation [1, 9]: 2.0 h
- AUC504-528, Observation [1, 10]: 796.1 µg·h/mL
- Cmax, Observation [1, 10]: 53200 ng/mL
- Ctrough, Observation [1, 10]: 28800 ng/mL
- Tmax, Observation [1, 10]: 4.5 h
- AUC0-24, Observation [1, 11]: 291.6 µg·h/mL
- Cmax, Observation [1, 11]: 20800 ng/mL
- Ctrough, Observation [1, 11]: 8200 ng/mL
- Tmax, Observation [1, 11]: 3.0 h
- AUC504-528, Observation [1, 12]: 536.2 µg·h/mL
- Cmax, Observation [1, 12]: 32700 ng/mL
- Ctrough, Observation [1, 12]: 16600 ng/mL
- Tmax, Observation [1, 12]: 2.0 h
- AUC0-24, Observation [1, 13]: 681.2 µg·h/mL
- Cmax, Observation [1, 13]: 44500 ng/mL
- Ctrough, Observation [1, 13]: 12200 ng/mL
- Tmax, Observation [1, 13]: 4.0 h
- AUC504-528, Observation [1, 14]: 860.3 µg·h/mL
- Cmax, Observation [1, 14]: 52700 ng/mL
- Ctrough, Observation [1, 14]: 28800 ng/mL
- Tmax, Observation [1, 14]: 3.0 h
- Slope of AUC vs dose, clinically determined value ([1]; ref Food and Drug Administration): 0.46
- Inhibitor of CYP3A4 (CYP3A4): weak inhibitor
- Inducer of CYP2B6 (CYP2B6): moderate inducer
- Ki (MATE2-K): 3300 nM
- fup, fraction of free drug in plasma [2]: 0.011% ([Verheijen et al., 2017])
- fup, fraction of free drug in plasma ([2]; value used in the model): 0.00011
- Ki (MATE1): 1700 nM
- Solubility ([3]; above pH 4.0): practically insoluble
- Solubility ([3]; pH = 1.0): very slight solubility
- Biopharmaceutics Classification System (BCS) class ([3]; ref Evaluation, 1997): class II
- LogP ([3]; ref Krens et al.): 3.33
- LogP ([3]; ref PMDA): 3.65
- Solubility (mean ± SD) at fed state ([4]; PH7.0): N (Not detected (below the detection limit))
- Solubility (mean ± SD) at fed state ([4]; PH7.5): N (Not detected (below the detection limit))
- Permeability [5]: highly permeable
